Data reported in ChEMBL document CHEMBL3881527, “Multi-functional small molecules as anti-proliferative agents” (2008).

Key:
[1] = biological target: Receptor tyrosine-protein kinase erbB-2 (Homo sapiens, UniProt P04626); experiment: Inhibition of N-terminal GST-tagged human HER2 (Lys676 to Val1255 residues) expressed in baculovirus expression system using biotinylated FLT3 at Tyr589 as substrate preincubated for 5 mins followed by substrate addition measured after 30 mins by DELFIA method
[2] = biological target: Epidermal growth factor receptor (Homo sapiens, UniProt P00533); experiment: Inhibition of N-terminal GST-fused human EGFR (His672 to Ala1210 residues) expressed in baculovirus expression system using biotinylated PTP1B at Tyr66 as substrate preincubated for 5 mins followed by substrate addition measured after 30 mins by DELFIA
Chain of Epidermal growth factor receptor (P00533 whole entry, the tested form may be a part): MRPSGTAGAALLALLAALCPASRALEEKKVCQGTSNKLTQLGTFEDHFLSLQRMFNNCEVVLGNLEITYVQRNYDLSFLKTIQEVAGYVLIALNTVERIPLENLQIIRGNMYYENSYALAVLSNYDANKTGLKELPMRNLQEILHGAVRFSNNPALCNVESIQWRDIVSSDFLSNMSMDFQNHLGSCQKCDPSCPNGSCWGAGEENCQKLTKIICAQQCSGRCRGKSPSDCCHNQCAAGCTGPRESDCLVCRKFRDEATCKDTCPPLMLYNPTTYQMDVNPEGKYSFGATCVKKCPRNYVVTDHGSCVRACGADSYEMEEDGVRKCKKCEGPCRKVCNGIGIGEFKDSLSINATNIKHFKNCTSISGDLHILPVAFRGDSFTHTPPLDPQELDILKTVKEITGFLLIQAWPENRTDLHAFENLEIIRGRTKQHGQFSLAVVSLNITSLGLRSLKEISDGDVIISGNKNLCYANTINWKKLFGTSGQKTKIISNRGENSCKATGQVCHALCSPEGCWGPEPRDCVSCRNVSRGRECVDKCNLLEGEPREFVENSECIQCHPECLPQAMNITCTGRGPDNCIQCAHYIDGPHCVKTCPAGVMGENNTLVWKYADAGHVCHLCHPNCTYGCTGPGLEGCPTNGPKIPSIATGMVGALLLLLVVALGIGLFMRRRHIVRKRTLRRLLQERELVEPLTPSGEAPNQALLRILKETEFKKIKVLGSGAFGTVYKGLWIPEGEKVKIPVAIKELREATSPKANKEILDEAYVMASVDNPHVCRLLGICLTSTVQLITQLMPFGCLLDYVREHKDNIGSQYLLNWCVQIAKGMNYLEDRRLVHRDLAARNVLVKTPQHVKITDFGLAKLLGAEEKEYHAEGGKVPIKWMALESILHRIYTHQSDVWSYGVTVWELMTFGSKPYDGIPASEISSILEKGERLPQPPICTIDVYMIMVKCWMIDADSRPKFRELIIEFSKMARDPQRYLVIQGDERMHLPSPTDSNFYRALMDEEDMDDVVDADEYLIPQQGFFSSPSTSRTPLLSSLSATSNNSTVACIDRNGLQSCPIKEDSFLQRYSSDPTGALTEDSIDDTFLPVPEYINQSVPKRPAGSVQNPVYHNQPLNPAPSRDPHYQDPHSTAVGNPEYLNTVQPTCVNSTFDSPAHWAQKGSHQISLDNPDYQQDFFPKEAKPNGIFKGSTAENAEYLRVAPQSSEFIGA

[3] = biological target: Vascular endothelial growth factor receptor 2 (Homo sapiens, UniProt P35968); experiment: Inhibition of N-terminal GST-His6-thrombin cleavage site-fused human VEGFR2 (Asp805 to Val1356 residues) expressed in baculovirus expression system using biotinylated gastrin precursor at Tyr87 as substrate preincubated for 5 mins followed by substrate addition measured after 30 mins by DELFIA method
Chain of Vascular endothelial growth factor receptor 2 (P35968 whole entry, the tested form may be a part): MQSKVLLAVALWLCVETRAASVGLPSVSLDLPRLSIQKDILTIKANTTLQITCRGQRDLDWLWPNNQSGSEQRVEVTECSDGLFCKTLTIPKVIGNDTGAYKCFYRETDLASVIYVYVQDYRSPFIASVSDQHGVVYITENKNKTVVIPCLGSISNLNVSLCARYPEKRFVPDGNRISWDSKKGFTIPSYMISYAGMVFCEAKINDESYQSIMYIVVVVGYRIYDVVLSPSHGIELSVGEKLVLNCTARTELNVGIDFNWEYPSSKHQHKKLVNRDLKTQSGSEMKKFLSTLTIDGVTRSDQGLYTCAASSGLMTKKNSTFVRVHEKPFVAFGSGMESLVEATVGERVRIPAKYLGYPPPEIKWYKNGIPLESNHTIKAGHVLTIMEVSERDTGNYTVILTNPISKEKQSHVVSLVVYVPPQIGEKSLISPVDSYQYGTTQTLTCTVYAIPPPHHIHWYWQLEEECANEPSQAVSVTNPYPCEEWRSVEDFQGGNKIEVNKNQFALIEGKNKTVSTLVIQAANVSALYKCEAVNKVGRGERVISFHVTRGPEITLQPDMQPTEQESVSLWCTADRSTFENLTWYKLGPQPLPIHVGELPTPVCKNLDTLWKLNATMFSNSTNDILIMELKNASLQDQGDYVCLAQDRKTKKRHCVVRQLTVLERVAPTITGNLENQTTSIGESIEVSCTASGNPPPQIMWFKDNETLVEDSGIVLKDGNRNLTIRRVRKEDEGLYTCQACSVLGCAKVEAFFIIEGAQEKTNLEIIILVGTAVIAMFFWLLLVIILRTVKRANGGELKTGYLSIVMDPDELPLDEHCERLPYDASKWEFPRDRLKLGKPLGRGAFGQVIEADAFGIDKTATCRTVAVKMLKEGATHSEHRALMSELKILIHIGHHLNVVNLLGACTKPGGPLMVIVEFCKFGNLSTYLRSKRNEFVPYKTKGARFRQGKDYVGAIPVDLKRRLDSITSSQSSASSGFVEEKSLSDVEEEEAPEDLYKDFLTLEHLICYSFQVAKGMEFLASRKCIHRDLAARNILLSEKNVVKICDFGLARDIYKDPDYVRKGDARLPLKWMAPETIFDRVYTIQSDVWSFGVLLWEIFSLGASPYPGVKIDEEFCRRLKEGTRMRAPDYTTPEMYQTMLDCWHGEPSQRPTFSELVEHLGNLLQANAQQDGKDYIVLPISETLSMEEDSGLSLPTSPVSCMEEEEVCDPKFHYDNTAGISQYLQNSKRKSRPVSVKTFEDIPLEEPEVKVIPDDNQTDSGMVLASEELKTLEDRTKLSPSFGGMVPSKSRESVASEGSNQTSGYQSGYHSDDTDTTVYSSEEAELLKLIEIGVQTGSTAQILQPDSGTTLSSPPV

Chain of Receptor tyrosine-protein kinase erbB-2 (P04626 whole entry, the tested form may be a part): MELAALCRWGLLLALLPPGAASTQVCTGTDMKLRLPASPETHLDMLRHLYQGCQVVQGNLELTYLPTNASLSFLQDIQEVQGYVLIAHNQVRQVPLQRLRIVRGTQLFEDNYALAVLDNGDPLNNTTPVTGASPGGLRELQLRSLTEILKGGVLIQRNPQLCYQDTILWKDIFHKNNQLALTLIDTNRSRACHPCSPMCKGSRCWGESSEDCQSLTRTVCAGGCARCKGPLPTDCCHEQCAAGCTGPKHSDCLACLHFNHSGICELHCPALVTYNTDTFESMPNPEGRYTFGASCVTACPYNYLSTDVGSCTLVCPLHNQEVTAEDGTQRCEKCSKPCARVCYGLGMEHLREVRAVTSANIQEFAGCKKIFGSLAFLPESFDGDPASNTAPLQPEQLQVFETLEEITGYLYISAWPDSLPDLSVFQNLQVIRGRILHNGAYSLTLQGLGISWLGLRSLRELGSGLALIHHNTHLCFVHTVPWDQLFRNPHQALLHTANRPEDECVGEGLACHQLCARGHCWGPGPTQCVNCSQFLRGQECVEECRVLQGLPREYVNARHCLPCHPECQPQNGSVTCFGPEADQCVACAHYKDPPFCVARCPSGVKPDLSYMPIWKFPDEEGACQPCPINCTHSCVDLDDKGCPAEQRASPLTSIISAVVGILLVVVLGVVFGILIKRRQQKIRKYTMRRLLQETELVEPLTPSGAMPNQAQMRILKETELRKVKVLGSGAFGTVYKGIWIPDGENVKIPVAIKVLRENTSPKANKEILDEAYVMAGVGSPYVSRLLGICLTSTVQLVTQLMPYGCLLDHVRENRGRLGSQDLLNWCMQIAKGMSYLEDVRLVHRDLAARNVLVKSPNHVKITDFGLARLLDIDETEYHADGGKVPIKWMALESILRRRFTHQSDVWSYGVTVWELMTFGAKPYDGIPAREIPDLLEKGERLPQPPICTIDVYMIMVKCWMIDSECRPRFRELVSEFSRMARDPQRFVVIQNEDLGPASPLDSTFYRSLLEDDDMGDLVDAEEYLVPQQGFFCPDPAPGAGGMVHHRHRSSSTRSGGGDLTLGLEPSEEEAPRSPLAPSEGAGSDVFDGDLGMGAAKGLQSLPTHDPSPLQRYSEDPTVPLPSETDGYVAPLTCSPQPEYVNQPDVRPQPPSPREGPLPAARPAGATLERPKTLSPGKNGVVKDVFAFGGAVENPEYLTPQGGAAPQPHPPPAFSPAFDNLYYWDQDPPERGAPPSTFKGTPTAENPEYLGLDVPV

SMILES | IC50 [1] [nM] | IC50 [2] [nM] | IC50 [3] [nM]
C[C@@H](Nc1ncnc2[nH]c(-c3ccc(NCCCCCCC(=O)NO)cc3)cc12)c1ccccc1 | ≤ 100 | ≤ 100 | 100 to 1000
C#Cc1cccc(Nc2ncnc3cc(OCCCCCCC(=O)NO)c(OCCOC)cc23)c1 | 100 to 1000 |  | 
C[C@@H](Nc1ncnc2[nH]c(-c3ccc(CN4CCN(CCC(=O)NO)CC4)cc3)cc12)c1ccccc1 | ≤ 100 | ≤ 100 | 100 to 1000
C[C@@H](Nc1ncnc2[nH]c(-c3ccc(NCc4ccc(/C=C/C(=O)NO)cc4)cc3)cc12)c1ccccc1 |  | ≤ 100 | 1000 to 10000
Cc1[nH]c(/C=C2\C(=O)Nc3ccc(F)cc32)c(C)c1C(=O)NCCOc1ccc(/C=C/C(=O)NO)cc1 |  |  | ≤ 100
C[C@@H](Nc1ncnc2[nH]c(-c3ccc(NC(=O)CCCCC(=O)NO)cc3)cc12)c1ccccc1 | 100 to 1000 | ≤ 100 | 100 to 1000
C[C@@H](Nc1ncnc2[nH]c(-c3ccc(OCCCCC(=O)NO)cc3)cc12)c1ccccc1 | 100 to 1000 | ≤ 100 | 100 to 1000
COc1cc2ncnc(Nc3ccc(F)c(Cl)c3)c2cc1SCCCCCCC(=O)NO | ≤ 100 |  | 
C#Cc1cccc(Nc2ncnc3cc(OCCCCCCC(=O)NO)c(OC)cc23)c1 | 100 to 1000 |  | 
C[C@@H](Nc1ncnc2[nH]c(-c3ccc(OCCCCCC(=O)NO)cc3)cc12)c1ccccc1 | 100 to 1000 | ≤ 100 | 1000 to 10000
C[C@@H](Nc1ncnc2[nH]c(-c3ccc(OCCCCCCC(=O)NO)cc3)cc12)c1ccccc1 | 100 to 1000 | ≤ 100 | ≤ 100
C[C@@H](Nc1ncnc2[nH]c(-c3ccc(NC(=O)CCCC(=O)NO)cc3)cc12)c1ccccc1 | 100 to 1000 | ≤ 100 | 100 to 1000
COCCOc1cc2ncnc(Nc3ccc(F)c(Cl)c3)c2cc1OCCCCCCC(=O)NO | 100 to 1000 |  | 
C[C@@H](Nc1ncnc2[nH]c(-c3ccc(OCCNCCCCCCCC(=O)NO)cc3)cc12)c1ccccc1 | ≤ 100 |  | 
C[C@@H](Nc1ncnc2[nH]c(-c3ccc(CN4CCN(CCCC(=O)NO)CC4)cc3)cc12)c1ccccc1 | ≤ 100 | ≤ 100 | 100 to 1000
C[C@@H](Nc1ncnc2[nH]c(-c3ccc(OCCNCCCCCCC(=O)NO)cc3)cc12)c1ccccc1 | ≤ 100 | ≤ 100 | ≤ 100
C#Cc1cccc(Nc2ncnc3cc(OC)c(NC(=O)CCCCCCC(=O)NO)cc23)c1 | 100 to 1000 |  | 
C[C@@H](Nc1ncnc2[nH]c(-c3ccc(NC(=O)CCCCCCC(=O)NO)cc3)cc12)c1ccccc1 | 100 to 1000 | ≤ 100 | 100 to 1000
C[C@@H](Nc1ncnc2[nH]c(-c3ccc(CNCc4ccc(/C=C/C(=O)NO)cc4)cc3)cc12)c1ccccc1 | ≥ 10000 | ≥ 10000 | ≥ 10000

SMILES | IC50 [1] [nM] | IC50 [2] [nM] | IC50 [3] [nM]
Cc1[nH]c(/C=C2\C(=O)Nc3ccc(F)cc32)c(C)c1C(=O)NCCCCCC(=O)N(C)O |  |  | ≤ 100
C[C@@H](Nc1ncnc2[nH]c(-c3ccc(CN4CCN(CCCCC(=O)NO)CC4)cc3)cc12)c1ccccc1 | 100 to 1000 | ≤ 100 | 100 to 1000
C[C@@H](Nc1ncnc2[nH]c(-c3ccc(NC(=O)CCC(=O)NO)cc3)cc12)c1ccccc1 | 100 to 1000 | ≤ 100 | 100 to 1000
C[C@@H](Nc1ncnc2[nH]c(-c3ccc(C(=O)NO)cc3)cc12)c1ccccc1 | ≤ 100 | ≤ 100 | 100 to 1000
O=C(CCCC(=O)NCc1cc(Oc2ccc(NC(=O)Nc3ccc(Cl)c(C(F)(F)F)c3)cc2)ccn1)NO |  |  | ≤ 100
C[C@@H](Nc1ncnc2[nH]c(-c3ccc(CN4CCC(NCCCCCCCC(=O)NO)CC4)cc3)cc12)c1ccccc1 | ≤ 100 |  | 
C[C@@H](Nc1ncnc2[nH]c(-c3ccc(C(=O)NCCNCCC(=O)NO)cc3)cc12)c1ccccc1 | 100 to 1000 | ≤ 100 | 100 to 1000
C#Cc1cc(Nc2ncnc3cc(OC)c(OCCCCCCC(=O)NO)cc23)ccc1O | ≤ 100 |  | 
COc1cc2c(Nc3ccc(F)c(Cl)c3)ncnc2cc1OCCCCCCC(=O)NO | 100 to 1000 |  | 
C[C@@H](Nc1ncnc2[nH]c(-c3ccc(OCCCC(=O)NO)cc3)cc12)c1ccccc1 | 100 to 1000 | ≤ 100 | 100 to 1000
C[C@@H](Nc1ncnc2[nH]c(-c3ccc(C(=O)NCCNCCCCCC(=O)NO)cc3)cc12)c1ccccc1 | 100 to 1000 | ≤ 100 | 100 to 1000
C[C@@H](Nc1ncnc2c1cc(-c1ccc(C(=O)NCCNCCCCCCC(=O)NO)cc1)n2C)c1ccccc1 | 100 to 1000 |  | 1000 to 10000
COCCOc1cc2c(Nc3ccc(F)c(Cl)c3)ncnc2cc1OCCCCCCC(=O)NO | 100 to 1000 |  | 
O=C(CCCC(=O)Nc1cc(Oc2ccc(NC(=O)Nc3ccc(Cl)c(C(F)(F)F)c3)cc2)ccn1)NO |  |  | ≤ 100
C[C@@H](Nc1ncnc2[nH]c(-c3ccc(CNCCCCCC(=O)NO)cc3)cc12)c1ccccc1 | 100 to 1000 | ≤ 100 | 100 to 1000
C[C@@H](Nc1ncnc2[nH]c(-c3ccc(OCCCCCCC(=O)NO)cc3)cc12)c1ccc(F)cc1 | 100 to 1000 | 100 to 1000 | 1000 to 10000
C[C@@H](Nc1ncnc2[nH]c(-c3ccc(CN4CCN(CCCCCCC(=O)NO)CC4)cc3)cc12)c1ccccc1 | ≤ 100 | ≤ 100 | 100 to 1000
C[C@@H](Nc1ncnc2[nH]c(-c3ccc(OCC(=O)NO)cc3)cc12)c1ccccc1 | ≤ 100 | ≤ 100 | 1000 to 10000
O=C(CCCCCN1CCN(Cc2ccc(-c3cc4c(NCc5ccccc5)ncnc4[nH]3)cc2)CC1)NO | 100 to 1000 | 100 to 1000 | 100 to 1000

SMILES | IC50 [1] [nM] | IC50 [2] [nM] | IC50 [3] [nM]
O=C(Nc1ccc(Oc2ccnc(C(=O)NO)c2)cc1)Nc1ccc(Cl)c(C(F)(F)F)c1 |  |  | 1000 to 10000
COc1cc2ncnc(Nc3ccc(F)c(Cl)c3)c2cc1SCCCCC(=O)NO | ≤ 100 |  | 
C[C@@H](Nc1ncnc2[nH]c(-c3ccc(NCCCCCC(=O)NO)cc3)cc12)c1ccccc1 | ≤ 100 | ≤ 100 | ≤ 100
COc1cc2ncnc(Nc3ccc(F)c(Cl)c3)c2cc1OCCCCCCC(=O)NO | ≤ 100 | 3.1 | 100 to 1000
O=C(CCCCCCNCc1cc(Oc2ccc(NC(=O)Nc3ccc(Cl)c(C(F)(F)F)c3)cc2)ccn1)NO |  |  | 100 to 1000
C[C@@H](Nc1ncnc2[nH]c(-c3ccc(C(=O)NCCNCCCCCCC(=O)NO)cc3)cc12)c1ccccc1 | 100 to 1000 | ≤ 100 | 100 to 1000
C#Cc1cccc(Nc2ncnc3cc(OC)c(OCC(=O)NO)cc23)c1 | ≤ 100 |  | 
O=C(CCCCCCCNCc1cc(Oc2ccc(NC(=O)Nc3ccc(Cl)c(C(F)(F)F)c3)cc2)ccn1)NO |  |  | 100 to 1000
C[C@@H](Nc1ncnc2[nH]c(-c3ccc(CNCc4ccc(C(=O)NO)cc4)cc3)cc12)c1ccccc1 | 100 to 1000 | ≤ 100 | 100 to 1000
O=C(CCCCCCOc1ccc(-c2cc3c(NCc4ccccc4)ncnc3[nH]2)cc1)NO | 1000 to 10000 | 100 to 1000 | 1000 to 10000
O=C(CCCCCNCc1ccc(-c2ccc3ncnc(Nc4ccc(OCc5cccc(F)c5)c(Cl)c4)c3c2)o1)NO | ≤ 100 |  | 
O=C(CCCCOc1cc(Oc2ccc(NC(=O)Nc3ccc(Cl)c(C(F)(F)F)c3)cc2)ccn1)NO |  |  | ≤ 100
COc1cc2ncnc(Nc3ccc(OCc4cccc(F)c4)c(Cl)c3)c2cc1OCCCCCCC(=O)NO | ≤ 100 |  | 
C[C@@H](Nc1ncnc2[nH]c(-c3ccc(NCc4ccc(C(=O)NO)cc4)cc3)cc12)c1ccccc1 | 100 to 1000 | ≤ 100 | 1000 to 10000
C[C@@H](Nc1ncnc2[nH]c(-c3ccc(CNCCCCCCC(=O)NO)cc3)cc12)c1ccccc1 | 100 to 1000 | ≤ 100 | 100 to 1000
O=C(CCCCCCOc1ccc2ncnc(Nc3ccc(OCc4cccc(F)c4)c(Cl)c3)c2c1)NO | ≤ 100 |  | 
C[C@@H](Nc1ncnc2[nH]c(-c3ccc(CNCC(=O)NO)cc3)cc12)c1ccccc1 | 1000 to 10000 | 1000 to 10000 | 
C[C@@H](Nc1ncnc2[nH]c(-c3ccc(CN4CCN(CCCCCC(=O)NO)CC4)cc3)cc12)c1ccccc1 | 100 to 1000 |  | 100 to 1000
